Data on 4 compounds can be found in article PMC4865820, “Branched Peptide, B2088, Disrupts the Supramolecular Organization of Lipopolysaccharides and Sensitizes the Gram-negative Bacteria” (Scientific Reports, 2016).

Read-outs that look alike come from different tables or passages of the source. Positions of bridges follow the written chain, without caps; N, C: chain ends. Non-standard residues stand in square brackets, D forms with d. Residues, ends and D or L forms follow the SMILES beside them. Chains are numbered I, II in the order given. *: point of attachment. X1 = CC[C@H](C)CCCCC(=O)*; Dab = NCC[C@H](N)C(=O)O

The test system of experiment [1] is K. pneumonia 07955. The experiment can be described thus: Checkerboard assay. The format is cell-based, K. pneumoniae. Particulars: for Fractional inhibitory concentration of B2088 used for FICI calculation: first number in parenthesis, in combination with the labelled antibiotic; for Fractional inhibitory concentration of antibiotic used for FICI calculation: second number in parenthesis, in combination with B2088. The method, then: (§1) The synergism between peptides with conventional antibiotics was evaluated using checkerboard assays. For a comparison polymyxin B (PMB) was also tested against each antibiotic. From their stock solutions, two-fold dilutions of each antibiotic and peptide to 1× MIC were prepared in MHB. 50 μl of each peptide concentration was added into the wells of a 96-well polystyrene plates (SPL Life Sciences Co. Ltd, Korea) in a horizontal orientation and the same volume of each antibiotic concentration were then added in a vertical orientation. Bacterial suspensions were prepared in MHB to yield final cell density of ~10^6 CFU/ml and 100 μl of bacterial suspension was mixed with each peptide-antibiotic combinations. This procedure was repeated for wells containing 200 μl of peptide alone and 200 μl of antibiotic alone in various concentrations. The positive and negative controls contained 200 μl of inoculum and MHB alone respectively. The plates were incubated at 37 °C for 24 hours and the optical density at 600 nm (OD600) was monitored as before. Fractional inhibitory concentration index (FICI) for all antibiotic- peptide combinations was calculated through the summation of (MIC of peptide in the combination/ MIC of peptide alone) and (MIC of antibiotics in combination/MIC of antibiotic alone). The experiments were performed in two independent duplicates and the combinations that gave the lowest FICI values was reported.

Experiment [2] has as its system K. pneumonia 4299. Nature of the experiment: Checkerboard assay. It is filed as cell-based, K. pneumoniae. Particulars: for Fractional inhibitory concentration of B2088 used for FICI calculation: first number in parenthesis, in combination with the labelled antibiotic; for Fractional inhibitory concentration of antibiotic used for FICI calculation: second number in parenthesis, in combination with B2088. The procedure: as §1

In experiment [3] the test system is K. pneumonia 31158. Nature of the experiment: Checkerboard assay. It is filed as cell-based, K. pneumoniae. Particulars: for Fractional inhibitory concentration of B2088 used for FICI calculation: first number in parenthesis, in combination with the labelled antibiotic; for Fractional inhibitory concentration of antibiotic used for FICI calculation: second number in parenthesis, in combination with B2088. The method, then: as §1

Experiment [4] concerns P. aeruginosa ATCC 27853. Nature of the experiment: microbe, parasite or virus in culture. The format is cell-based. In outline:
(§2)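 Peptides two-fold diluted in Mueller-Hinton Broth (0.0976–50 μg/ml final) against 10^5–10^6 CFU/ml inoculum, 37 °C for 24 h with OD600 monitored every 30 min. MIC = lowest concentration with no visible growth; two independent duplicates.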

Experiment [5] deals with LPS (E. coli serotype 055:B5). Nature of the experiment: BODIPY TR cadaverine (BC) displacement assay with LPS. To be noted: 5 mM HEPES pH 7.4, duplicates; for ED50 (50% displacement of BC dye from LPS; also called BC50): fluorescence ex 580/em 620 nm, with respect to PMB; for EC50: no unit in table, ED50 values in μM, read-out: BC50 (LPS binding). It is filed as binding. In a few lines:
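Peptides (0.02–25.6 μM, two-fold dilutions) mixed 1:1 with BODIPY TR cadaverine:LPS (E. coli 055:B5) mixture in 5 mM HEPES pH 7.4; fluorescence at 580/620 nm. Displacement normalized to polymyxin B (Fmax) and probe:LPS alone (F0); ED50 from curve fit, duplicates.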

Experiment [6] concerns K. pneumoniae ATCC10031. It is filed as cell-based. In outline:
as §2

The test system of experiment [7] is P. aeruginosa 23155. The format is cell-based. In outline:
as §2

Where [8] appears, read: MHB, 10^5–10^6 CFU/ml, 37 °C, 24 h, two independent duplicates.

As to `COc1c(N2CCNC(C)C2)c(F)cc2c(=O)c(C(=O)O)cn(C3CC3)c12` (stereo not shown) [Gatifloxacin], in experiment [1], the “Fractional Inhibitory Concentration Index of B2088 with the antibiotic” value was found to be 0.63, the “Fractional inhibitory concentration of B2088 used for FICI calculation” value is 0.13 and the “Fractional inhibitory concentration of antibiotic used for FICI calculation” value was 0.5. Moreover, in experiment [2], the “Fractional Inhibitory Concentration Index of B2088 with the antibiotic” value is recorded as 0.56, the “Fractional inhibitory concentration of B2088 used for FICI calculation” value was 0.06 and the “Fractional inhibitory concentration of antibiotic used for FICI calculation” value is recorded as 0.5. In experiment [3], the “Fractional Inhibitory Concentration Index of B2088 with the antibiotic” value turned out to be 0.56, the “Fractional inhibitory concentration of B2088 used for FICI calculation” value was 0.06 and the “Fractional inhibitory concentration of antibiotic used for FICI calculation” value is recorded as 0.5.

Consider `CC[C@H](C)CCCCC(=O)N[C@@H](CCN)C(=O)N[C@H](C(=O)N[C@@H](CCN)C(=O)N[C@H]1CCNC(=O)[C@H]([C@@H](C)O)NC(=O)[C@H](CCN)NC(=O)[C@H](CCN)NC(=O)[C@H](CC(C)C)NC(=O)[C@@H](Cc2ccccc2)NC(=O)[C@H](CCN)NC1=O)[C@@H](C)O` [Polymyxin B, polymyxin B, reference compound] (X1-[Dab]T[Dab][Dab][Dab][dF]L[Dab][Dab]T; lactam 4-C (inferred); N-terminus assumed), for which the “Minimum Inhibitory Concentration against P. aeruginosa ATCC 27853” value in experiment [4] (setting [8]) was 0.57 µM. Further, in experiment [5], the “ED50 (50% displacement of BC dye from LPS; also called BC50)” value came out at 1560 ± 20 nM and the EC50 turned out to be 1.56 ± 0.02 µM. Also, the “Minimum Inhibitory Concentration against K. pneumoniae ATCC10031” value in experiment [6] (setting [8]) was found to be 0.57 µM. Further, the “Minimum Inhibitory Concentration against P. aeruginosa 23155” value in experiment [7] (setting [8]) was 0.57 µM.

With `CC(C)[C@H](NC(=O)[C@H](CCCCN)NC(=O)[C@H](CCCNC(=N)N)NC(=O)CNC(=O)[C@@H](N)CCCNC(=N)N)C(=O)N[C@H](C(=O)N[C@@H](CCCNC(=N)N)C(=O)N[C@@H](CCCNC(=N)N)C(=O)NCCCC[C@H](NC(=O)[C@H](CCCNC(=N)N)NC(=O)[C@H](CCCNC(=N)N)NC(=O)[C@@H](NC(=O)[C@@H](NC(=O)[C@H](CCCCN)NC(=O)[C@H](CCCNC(=N)N)NC(=O)CNC(=O)[C@@H](N)CCCNC(=N)N)C(C)C)C(C)C)C(=O)N[C@@H](CCCCN)C(=O)O)C(C)C` [B2088] (I: H-RGRKVVRRKK-OH / II: H-RGRKVVRR; amide I:9-II:C; N-terminus and C-terminus assumed), in experiment [4] (ATCC 27853, 24 h), the “Minimum Inhibitory Concentration against P. aeruginosa ATCC 27853” value worked out at 2.7 µM. Moreover, in experiment [5], the “ED50 (50% displacement of BC dye from LPS; also called BC50)” value turned out to be 1920 ± 30 nM and the EC50 came out at 1.9 ± 0.1 µM. Moreover, the “Minimum Inhibitory Concentration against K. pneumoniae ATCC10031” value in experiment [6] (ATCC10031, 24 h) stood at 1.4 µM. In experiment [7] (23155, 24 h), the “Minimum Inhibitory Concentration against P. aeruginosa 23155” value stood at 1.4 µM.

For the compound `NC[C@H]1O[C@H](O[C@H]2[C@H](O)[C@@H](O[C@H]3O[C@H](CO)[C@@H](O)[C@H](N)[C@H]3O)[C@H](N)C[C@@H]2N)[C@H](N)C[C@@H]1O` [Tobramycin], the “Fractional Inhibitory Concentration Index of B2088 with the antibiotic” value in experiment [1] worked out at 0.75; in experiment [2], 0.25; in experiment [3], 0.25. Besides, the “Fractional inhibitory concentration of B2088 used for FICI calculation” value in experiment [1] was 0.5; in experiment [2] it was “(0.125,0.125)”; in experiment [3], “(0.125,0.125)”. Further, the “Fractional inhibitory concentration of antibiotic used for FICI calculation” value is 0.25 in experiment [1], “(0.125,0.125)” in experiment [2] and “(0.125,0.125)” in experiment [3].
